This passage reports cytotoxicity results from ChEMBL document CHEMBL3507680, “University of Dundee, Gates Library screen for HepG2 cell viability”.

A short description of the series: Human HepG2 cell viability assay in 384 well format. The settings on record: HepG2 cells, read-out: Inhibition. Also noted: dose 125 nL, time 70.5 hour; concentration not given beside the values. It is filed as toxicity, cell-based.
With `F[C@@H]1CN(CC2CC2)C[C@@H]1OCc1nc2ccccc2o1`, the cytotoxicity at 70.5 h is -1.13%.

In the case of `Cc1ccc2nc3n(c2c1)[C@@H](CNC(=O)c1ccncc1)COC3`, the cytotoxicity at 70.5 h stood at 4.47%.

Consider `COc1cccc(CNC[C@H]2COCc3nc4cccnc4n32)n1`, for which the cytotoxicity at 70.5 h is -8.19%.

Take `COc1ccc(C(=O)NC[C@H]2COCc3nc4cc(C)ccc4n32)cc1`: the cytotoxicity at 70.5 h was -4.37%.

Regarding `Cc1cccc2c1nc1n2[C@@H](CNC(=O)C2CCOCC2)COC1`, the cytotoxicity at 70.5 h was -4.19%.

In the case of `COCC(=O)N[C@H](C)c1c(-c2ccc(Cl)cc2)noc1C(=O)O`, the cytotoxicity at 70.5 h is -2.23%.

As to `Cc1cccc2c1nc1n2[C@@H](CNC(=O)Cc2ccccc2)COC1`, the cytotoxicity at 70.5 h was -1.08%.

With `C[C@@H](NCc1cccc(Cl)c1)c1onc(-c2ccccc2)c1C(=O)O`, the cytotoxicity at 70.5 h was -3.56%.

`Cc1cccc(CNC[C@H]2Cn3ccnc3CO2)n1`: the cytotoxicity at 70.5 h was -1.57%.

For `CCN(CC)[C@H]1C[C@@H](Cc2cc(CO)on2)C1(C)C`, the cytotoxicity at 70.5 h was -7.1%.

Take `CN1C(=O)CO[C@H](c2ccc(NC(=O)Cc3cccs3)cc2)[C@H]1CO`: the cytotoxicity at 70.5 h is -6.23%.

For `O=C(c1ccc2c(c1)OCO2)N1CCN2C(=O)NC[C@H]2C1`, the cytotoxicity at 70.5 h was -7.42%.

`CC(C)(C)C(=O)NC[C@H]1Cn2c(-c3ccccc3)cnc2CO1`: the cytotoxicity at 70.5 h was -9.72%.

In the case of `O=C(NC[C@H]1Cn2c(-c3ccccc3)cnc2CO1)C1CCOCC1`, the cytotoxicity at 70.5 h was -9.93%.

Regarding `COCCO[C@H]1COCCN(Cc2ccc(OC)cc2)C1`, the cytotoxicity at 70.5 h is 8.32%.

Regarding `CC(C)(C)c1coc([C@@H]2COCCN2Cc2c[nH]c3ccccc23)n1`, the cytotoxicity at 70.5 h was found to be 1.59%.

With `CC(C)(C)C(=O)N1C[C@@H](F)[C@@H](OCc2nc3ccccc3o2)C1`, the cytotoxicity at 70.5 h is -3.29%.

For `Cn1c(CN2CCOC[C@H]2c2nc(C(C)(C)C)co2)nc2ccccc21`, the cytotoxicity at 70.5 h was -0.449%.

As for `COc1ccc2c(c1)nc1n2[C@@H](CNCc2nccs2)COC1`, the cytotoxicity at 70.5 h is -13.7%.

For the compound `COc1ccc2c(c1)nc1n2[C@@H](CNCc2ccccc2)COC1`, the cytotoxicity at 70.5 h was determined as 10.1%.

For the compound `F[C@@H]1CN(C2CCC2)C[C@@H]1OCc1nc2ncccc2[nH]1`, the cytotoxicity at 70.5 h is 15.4%.

On to `CCN(CC)CC[C@H]1CN(C(=O)NC2CCCCC2)CC[C@H]1CC(=O)O`, for which the cytotoxicity at 70.5 h is -1.74%.

As for `CCN1C(=O)COC[C@@H]1[C@H](O)c1ccc(NC(=O)COC)cc1`, the cytotoxicity at 70.5 h came out at 11%.

In the case of `FC(F)(F)Oc1ccc(-c2c[nH]c([C@@H]3COCCN3)n2)cc1`, the cytotoxicity at 70.5 h was -3.01%.

As to `CC(=O)N1C[C@@H](F)[C@@H](OCc2nc3ccc(C#N)cc3[nH]2)C1`, the cytotoxicity at 70.5 h was -1.65%.

In the case of `COc1ccc(CNC[C@H]2COCc3nc4cccnc4n32)cn1`, the cytotoxicity at 70.5 h was -6.49%.

For the compound `O=C(NC[C@H]1OC[C@@H](NC2CCOCC2)[C@@H]1O)Nc1ccccc1`, the cytotoxicity at 70.5 h came out at 14.3%.

Turning to `CN1CCN2C(=O)N(c3ccccc3)C[C@H]2C1`, the cytotoxicity at 70.5 h is -0.222%.

For the compound `O=C(NC[C@H]1OC[C@@H](NC2CCOCC2)[C@@H]1O)c1cccs1`, the cytotoxicity at 70.5 h is -8.14%.

On to `CC(C)NC(=O)NC[C@H]1OC[C@@H](NCc2ccc(S(C)(=O)=O)cc2)[C@@H]1O`, for which the cytotoxicity at 70.5 h is -3.26%.

On to `COCCN1C[C@H]2CN(C(=O)NC(C)C)CCN2C1=O`, for which the cytotoxicity at 70.5 h is -3.98%.

Take `O=C(c1cccnc1)N1CCN2C(=O)N(Cc3ccc(F)cc3)C[C@H]2C1`: the cytotoxicity at 70.5 h came to 9.22%.

On to `CC(=O)N1CCOC[C@H](Oc2ccc(C(F)(F)F)cc2)C1`, for which the cytotoxicity at 70.5 h is 1.19%.

In the case of `CC(C)CN1CCOC[C@H](Oc2ccc(S(C)(=O)=O)cc2)C1`, the cytotoxicity at 70.5 h is 13.8%.

As for `Cn1ccnc1CN1C[C@H]2CN(S(=O)(=O)c3ccccc3)CCN2C1=O`, the cytotoxicity at 70.5 h is -2.62%.

Regarding `CN1CCN2C(=O)N(C3CCOCC3)C[C@H]2C1`, the cytotoxicity at 70.5 h was -2.12%.

On to `Clc1ccc(CN2CCOC[C@H](Oc3cccnc3)C2)cc1`, for which the cytotoxicity at 70.5 h is -2.34%.

For the compound `FC(F)(F)c1cccc(CN2CCOC[C@H](Oc3cccnc3)C2)c1`, the cytotoxicity at 70.5 h is -1.63%.

In the case of `CS(=O)(=O)NC[C@H]1Cn2c(-c3ccc(F)cc3)cnc2CO1`, the cytotoxicity at 70.5 h is -3.71%.

Turning to `CS(=O)(=O)NC[C@H]1Cn2c(-c3ccc(Cl)cc3)cnc2CO1`, the cytotoxicity at 70.5 h is -7.36%.

`O=C(NC[C@H]1Cn2c(-c3ccccc3)cnc2CO1)C1CC1`: the cytotoxicity at 70.5 h is -7.19%.

As for `CC(C)(C)CN[C@@H]1CO[C@H](CNC(=O)Nc2ccccc2)[C@H]1O`, the cytotoxicity at 70.5 h is -1.92%.

Take `c1cc(CN2CCOC[C@H]2c2nc(-c3ccncc3)c[nH]2)ccn1`: the cytotoxicity at 70.5 h was determined as 1.86%.

Consider `CC(C)(C)c1c[nH]c([C@@H]2COCCN2C2CCCCC2)n1`, for which the cytotoxicity at 70.5 h was -0.143%.

Consider `c1cncc(-c2c[nH]c([C@@H]3COCCN3Cc3ccncc3)n2)c1`, for which the cytotoxicity at 70.5 h is 1.27%.

As to `CC(=O)N1CCC(N2CCOC[C@H]2c2nc(-c3ccncc3)c[nH]2)CC1`, the cytotoxicity at 70.5 h was -0.136%.

`O=C1CCC2(CCCN(C(=O)c3cccs3)C2)N1` (stereo not drawn): the cytotoxicity at 70.5 h stood at 35.1%.

On to `CC(=O)N1CCC2(CC1)CN(C(=O)c1ccc3c(c1)OCO3)C2`, for which the cytotoxicity at 70.5 h turned out to be 5.17%.

Consider `CNC(=O)CN1C(=O)CCC12CCCN(Cc1ccccc1F)C2` (stereo not drawn), for which the cytotoxicity at 70.5 h came out at 6.16%.

As to `CNC(=O)CN1C(=O)CCC12CCCN(Cc1ccccn1)C2` (stereo not drawn), the cytotoxicity at 70.5 h is 2.52%.

For `O=C(N[C@]12CC1CN(C(=O)c1ccco1)C2)c1ccoc1` (stereo partly drawn), the cytotoxicity at 70.5 h was -7.38%.

On to `CC(C)CN1C[C@@H]2C(=O)NC3(CCN(C(=O)c4cccnc4)CC3)[C@@H]2C1`, for which the cytotoxicity at 70.5 h was -9.79%.

Take `O=S(=O)(c1ccc(Cl)cc1)N1C[C@@H]2CCN[C@@H]2C1`: the cytotoxicity at 70.5 h is -6.26%.

With `CNC(=O)CN1C(=O)CCC12CCCN(CCc1ccccc1)C2` (stereo not drawn), the cytotoxicity at 70.5 h was 27.8%.

For the compound `O=C(CC1CCCC1)N1C[C@@H]2C[C@H]1CN2`, the cytotoxicity at 70.5 h was -3.6%.

As for `COCCN1C[C@@H]2CN(S(=O)(=O)c3cccs3)C[C@@H]2C1=O`, the cytotoxicity at 70.5 h was -8.88%.

`CC(C)CN1C[C@@H]2CN(S(=O)(=O)c3cccs3)C[C@@H]2C1=O`: the cytotoxicity at 70.5 h was -10.3%.

On to `O=C(c1cc(F)cc(F)c1)N1C[C@H]2CNC[C@H]2C1`, for which the cytotoxicity at 70.5 h is -13.4%.

In the case of `CCN1C(=O)CC[C@@H]2[C@H]1CCN2S(=O)(=O)c1cccs1`, the cytotoxicity at 70.5 h was -4.53%.

Regarding `O=C1[C@H]2CN(S(=O)(=O)c3cccs3)C[C@H]2CN1CC1CC1`, the cytotoxicity at 70.5 h was -2.27%.

For the compound `C[C@H]1C[C@H]2CN(C(=O)C3=CCCC3)CC[C@H]2O1`, the cytotoxicity at 70.5 h is -9.81%.

Consider `CC(C)CNC(=O)N1C[C@@H]2CCCN[C@@H]2C1`, for which the cytotoxicity at 70.5 h is -8.84%.

As for `CC(C)C(=O)N1CCC2(CC1)NC(=O)[C@H]1CN(C(=O)N(C)C)C[C@H]12`, the cytotoxicity at 70.5 h is -11.8%.

Consider `CC(=O)N1CCCC2(CCN(C(=O)c3nccnc3N)CC2)C1`, for which the cytotoxicity at 70.5 h was determined as 26.1%.

On to `CC(=O)N1CCCC2(C1)CN(C(=O)C1CCCCC1)CCO2` (stereo not drawn), for which the cytotoxicity at 70.5 h amounted to 23.5%.

Turning to `CC(=O)N1CCC2(CCCN(C(=O)CCN3CCCCC3)C2)C1` (stereo not drawn), the cytotoxicity at 70.5 h is 20.2%.

In the case of `CC(=O)N1CCCC2(CCN(c3ccccc3)C2=O)C1` (stereo not drawn), the cytotoxicity at 70.5 h turned out to be 12.8%.

As for `Cc1noc([C@@H](C)NCc2ccc(F)cc2)c1C(=O)O`, the cytotoxicity at 70.5 h was -1.34%.

`CC(C)NC(=O)NC[C@@]1(COc2cnccn2)C[C@@H](O)[C@@H](O)C1`: the cytotoxicity at 70.5 h came out at 3.08%.

Regarding `C[C@@H](NC(=O)c1cnccn1)c1c(-c2ccc(Cl)cc2)noc1C(=O)O`, the cytotoxicity at 70.5 h was -5.53%.

Turning to `O=C(NCC1CCC2(CCNCC2)O1)C1CC1` (stereo not drawn), the cytotoxicity at 70.5 h was determined as 2.18%.

For the compound `O=C(NCC1CCCCC1)N1C[C@@H]2C[C@H]1CN2`, the cytotoxicity at 70.5 h was -7.03%.

For `CN(Cc1ccco1)C1CCC12CCN(C(=O)C1CCOCC1)CC2` (stereo not drawn), the cytotoxicity at 70.5 h is -3.65%.

Consider `CN(Cc1ccco1)C1CCC12CCN(C(=O)N1CCCC1)CC2` (stereo not drawn), for which the cytotoxicity at 70.5 h is -7.66%.

For `COCc1nn(CC2CC2)c2c1CN(Cc1ccco1)CC2`, the cytotoxicity at 70.5 h is -8.39%.

As for `O=C1CC2(CNCCN(C(=O)Nc3ccccc3)C2)CN1` (stereo not drawn), the cytotoxicity at 70.5 h was -9.89%.

On to `Cc1ccc(CN2CCCC3(CCC(=O)N3)CC2)s1` (stereo not drawn), for which the cytotoxicity at 70.5 h was -7.87%.

As for `CN1C(=O)C2(CCN(Cc3nccn3C)CC2)c2ccccc21`, the cytotoxicity at 70.5 h was -4.36%.

Regarding `O=C(c1ccco1)N1C[C@@H]2CN(c3ccccn3)C[C@@H]2C1`, the cytotoxicity at 70.5 h is -0.814%.

For `CCN1CCC12CCN(C(=O)c1cc(C)on1)C2` (stereo not drawn), the cytotoxicity at 70.5 h is -2.64%.

Take `Cc1cc(C(=O)N2CCC3(CCN3Cc3ccc(F)cc3)C2)no1` (stereo not drawn): the cytotoxicity at 70.5 h was -3.92%.

In the case of `O=C1CCC2(CCCN(Cc3ccccc3F)C2)N1CC1CC1` (stereo not drawn), the cytotoxicity at 70.5 h is -2.34%.

With `O=S(=O)(c1cccs1)N1CC[C@H]2[C@H]1CCN2c1ncccn1`, the cytotoxicity at 70.5 h was -4.67%.

Consider `CCN1CC[C@@]2(C(=O)N3CCOCC3)CCN(C(=O)CC(C)C)CC[C@@H]12`, for which the cytotoxicity at 70.5 h was -2.66%.

`CC(C)CN1CC[C@@H]2[C@@H]1CCN2S(=O)(=O)c1cccs1`: the cytotoxicity at 70.5 h was -18%.

Regarding `CCN1C(=O)C(c2ccccc2)CC12CCN(CCO)CC2` (stereo not drawn), the cytotoxicity at 70.5 h is -13.9%.

For `COCc1nn(C)c2c1CCN(Cc1cnn(C)c1)C2`, the cytotoxicity at 70.5 h was -5.93%.

As for `CCN1CC[C@@]2(C(=O)N3CCCC3)CCN(S(C)(=O)=O)CC[C@@H]12`, the cytotoxicity at 70.5 h was -8.95%.

For the compound `CCN1CC[C@@]2(C(=O)N(C)C)CCN(C(=O)Cc3ccccc3)CC[C@@H]12`, the cytotoxicity at 70.5 h was -8.1%.

Regarding `CCN1CC[C@@]2(C(=O)N3CCOCC3)CCN(S(=O)(=O)CC)CC[C@@H]12`, the cytotoxicity at 70.5 h stood at 3.2%.

With `COCCN1CCC2(CC1)CN(C(=O)c1cccs1)CCO2`, the cytotoxicity at 70.5 h amounted to 33.9%.

As for `CC(C)C(=O)NC1COC2(CCN(Cc3cccnc3)CC2)C1` (stereo not drawn), the cytotoxicity at 70.5 h is -10.3%.

For `CCN1C(=O)C(c2ccccc2)CC12CCN(Cc1cccnc1)CC2` (stereo not drawn), the cytotoxicity at 70.5 h is -7.6%.
